Here are results for 10 compounds from publication PMC11110763, “Carltonine-derived compounds for targeted butyrylcholinesterase inhibition” (RSC Medicinal Chemistry, 2024).

Converted amounts (≈) assume the structure as drawn.

Data set [1] is described as follows: Cytotoxicity MTT assay, human neuroblastoma cell line. Particulars: SH-SY5Y neuroblastoma cells. In general terms: Tetrazolium assays rely on reduction of a dye to a coloured formazan, in cell work by metabolically active cells.
Data set [2] is described as follows: in vitro. As to conditions: human, HepG2 hepatocellular carcinoma cells.
Description: (§1) For passaging, the cells were treated with trypsin/EDTA (Sigma-Aldrich, St. Louis, USA) at 37 °C and then harvested. For cytotoxicity evaluation, the cells treated with the studied substances were used, while untreated HepG2 cells served as the control group. The cells were seeded in a 96-well plate at a density of 5 × 10^4 cells per well and incubated for 24 hours. All tested compounds were dissolved in DMSO to prepare 10 mM stock solutions and subsequently diluted to the desired concentration just before the cell treatment (the highest DMSO concentration used was 0.5% v/v). Positive and negative controls were included, as well, and the activity of all the samples was determined in triplicate. Plates were incubated for 24 h in a humidified atmosphere containing 5% CO2 at 37 °C. […] Afterwards, the formazan crystals were dissolved in DMSO, and the absorbance of samples was recorded at 570 nm (BioTek, Synergy Neo2 Multi-Mode Reader NEO2SMALPHAB; BioTek, Winooski, VT, USA). IC50 values were calculated by nonlinear regression from a semi-logarithmic plot of incubation concentration versus percentage of absorbance relative to untreated controls using GraphPad Prism software (version 9; GraphPad Software, Inc., La Jolla, CA, USA).
Data set [3] is described as follows: PAMPA assay (BBB penetration). As to conditions: for Pe ± SEM: PAMPA, PBS pH 7.4, n = 3; for BBB penetration estimation CNS (+/−): class from PAMPA Pe.
Excerpt: Furthermore, we experimentally determined the ability of 12 highlighted hBChE inhibitors to pass through the BBB using a parallel artificial membrane permeation assay (PAMPA) as described by Di et al.[65] […] The methodology was validated on a set of compounds (positive and negative controls) recognized for their activity in the CNS (Table 3).
In this study, it has been used as a non-cell-based in vitro assay carried out in a coated 96-well membrane filter. The filter membrane of the donor plate was coated with PBL (polar brain lipid, Avanti, USA) in dodecane (4 μl of 20 mg ml^−1 PBL in dodecane) and the acceptor well was filled with 300 μl of PBS (pH 7.4; VA). The tested compounds were dissolved first in DMSO and subsequently diluted with PBS (pH 7.4) to final concentrations of 50–100 μM in the donor wells. […] About 300 μL of the donor solution was added to the donor wells (VD) and the donor filter plate was carefully put on the acceptor plate so that the coated membrane was “in touch” with both the donor solution and acceptor buffer. In principle, the test compound diffused from the donor well through the lipid membrane (area = 0.28 cm^2) to the acceptor well. The concentration of the drug in both the donor and acceptor wells was assessed after 3, 4, 5, and 6 h of incubation in quadruplicate using the UV plate reader Spark (Tecan Group Ltd, Switzerland) at the maximum absorption wavelength of each compound. Besides that, a solution of theoretical compound concentration, simulating the equilibrium state established if the membrane were ideally permeable, was prepared and assessed as well. The concentration of the compounds in the donor and acceptor wells and equilibrium concentration were calculated from the standard curve and expressed as the permeability (Pe) according the equation: [drawing 10] where [drawing 11]
Data set [4] concerns the target T1, recombinant BChE (hBChE, E.C. 3.1.1.8) (Homo sapiens, UniProt P06276).
T1 construct: purchased Sigma-Aldrich, Prague, Czech Republic
Briefly: biochemical. Format: biochemical. Particulars: for IC50: mean ± SEM of three independent measurements, each in triplicate; for inhibition at 10 µM: tested at 10 μM compound concentration, read-out: % inhibition of hBChE ± SEM.
Description: The activities of hAChE and hBChE were determined using a modified Ellman's method, as described in ref. [56] and [62] against recombinant AChE (hAChE, E.C. 3.1.1.7) and recombinant BChE (hBChE, E.C. 3.1.1.8), both of which were purchased from Sigma-Aldrich, Prague, Czech Republic. […] The other compounds used, including the phosphate buffer solution (PBS, pH = 7.4), 5,5′-dithio-bis(2-nitrobenzoic) acid (Ellman's reagent, DTNB), acetylthiocholine (ATChI), and butyrylthiocholine (BTChI), were commercially available and purchased from Sigma-Aldrich in Prague, Czech Republic. In brief, the corresponding enzyme (8.3 μL), 5 mM DTNB (283 μL), and the sample dilution in dimethyl sulfoxide (DMSO) at various concentrations (8.3 μL) were added to 96-well microplates (BRAND GMBH + CO KG, Wertheim, Germany) and pre-incubated for 5 minutes in the assay medium. The reaction was initiated by adding 10 mM substrate (ATChI or BTChI, 33.3 μL). […] Each measurement was repeated in triplicate. The percentage of inhibition was calculated using the following formula: [drawing 8] where ΔABl represents the increase in absorbance of the blank sample, and ΔASa represents the increase in absorbance of the measured sample. […] Microsoft Excel (Redmond, WA, USA) and GraphPad Prism version 7 for Windows (GraphPad Software, San Diego, CA, USA) were used for the statistical data evaluation.

Data set [5] relates to HepG2 cells. As to conditions: human, 24 h.
Description: as §1
Data set [6] can be described thus: Human liver microsomal (HLM) stability. Particulars: pooled human liver microsomes. In kind it is in vitro ADME.
Description: Briefly, compounds were dissolved in DMSO to produce stock sample solutions. […] Subsequently, 400 μL of supernatant was transferred to the vial and analyzed by LC-MS. Three types of blank samples were prepared in the same way, with a one-step exception. In the biological blank sample, 5 μL of DMSO was added instead of 5 μL stock solution, in the chemical blanks, 50 μL of water was added instead of HLM, and in the case of the control blank sample, 25 μL of water was added instead of 25 μL of RapidStart System.
A Reverse-phase C18 column Kinetex EVO (Phenomenex, Torrance, CA, USA) was used as a stationary phase, and purified water with 0.1% formic acid (mobile phase A) and LC-MS grade acetonitrile with 0.1% formic acid (mobile phase B) were used as the mobile phases. […] The column temperature was kept constant at 27 °C, the flow of the mobile phase was 0.5 mL min^−1, and the injection volume was 1 μL. […]
The peak areas of the compounds (Acmp) and internal standards (AIS) were detected in positive mode in extracted ion chromatograms from the mass spectrometer data. For the determination of microsomal stability, the Acmp/AIS was calculated as logarithmized. […]
Data set [7] in a line: Human plasma stability. In kind it is in vitro ADME. Particulars: percentage of the remaining compound after 120 min incubation, 1 μM. The protocol:
Compound 33 was incubated with human pooled plasma (Batch S00G71, Biowest, France). Briefly, compounds were dissolved in DMSO to produce stock sample solutions. 10 μL of stock solution was added to 990 μL of human plasma to initiate the reaction. […] The reactions were stopped by transferring 200 μL of incubate to 200 μL of acetonitrile containing the internal standard (IS; 67) at appropriate time points (0, 15, 30, 60 and 120 min) and centrifuged at 12 000 rpm for 5 min at 4 °C to precipitate the protein. After that, […] of supernatant was transferred to the vial and analyzed by LC-MS.
The HPLC system used in this study was Dionex Ultimate 3000 UHPLC RS consisting of an RS pump, RS column compartment, RS autosampler and diode array detector controlled by Chromeleon (version 7.2.9. build 11323) software (Thermo Fisher Scientific, Germering, Germany) connected to a Q Exactive Plus Orbitrap mass spectrometer with Thermo Xcalibur (version 3.1.66.10.) software (Thermo Fisher Scientific, Bremen, Germany). […]
For the determination of plasma stability, the percentage of the remaining compound was calculated from the ratio between peak area ratios (compound peak area/internal standard peak area) obtained at incubation times 0 and 120 min.

Data set [8] concerns the target hBChE (Homo sapiens, UniProt P06276). The data set is described as follows: Enzyme kinetic analysis of hBChE inhibition. Format: biochemical. As for the experimental part:
A kinetic study was performed to estimate the interaction mode of derivative 33 with hBChE. The inhibition kinetics was calculated from rate curves that were determined at several concentrations of the tested compound and substrate. The type of enzyme inhibition and appropriate kinetic parameters (Ki and Ki′) were determined using nonlinear regression analysis. Results for each type of inhibition model (competitive, non-competitive, uncompetitive and mixed) were compared by the sum-of-squares F-test. […].
The kinetic study of hBChE was conducted using the modified Ellman's method mentioned earlier,[62,74,75] with slight variations applied at the collaborating laboratory. Solutions of the corresponding ChE in phosphate buffer (PB) were prepared to achieve a final activity of 0.002 U μL^−1. The solutions of the tested compounds (8.3 μL at varying concentrations) were pre-incubated for 5 minutes in the assay medium. […] The increase in absorbance was measured for 1 minute at 412 nm using the Multimode microplate reader Synergy 2 (BioTek Inc., Winooski, VT, USA). Nunc flat-bottomed polystyrene 96-well microplates (ThermoFisher Scientific, USA) were used for these measurements. To calculate the resulting measured activity (expressed as the percentage of inhibition I), the following formula was applied: [drawing 9] where ΔAi indicates the absorbance change provided by adequate enzyme exposed to the corresponding inhibitor and ΔA0 indicates the absorbance change when a solution of PB was added instead of a solution of the inhibitor. Microsoft Excel (Redmond, WA, USA) and GraphPad Prism version 8.30 for Windows (GraphPad Software, San Diego, CA, USA) were employed for the statistical data analysis. The values of Vmax and Km for the Michaelis–Menten kinetics, as well as the values of Ki (enzyme–inhibitor dissociation constant) and Ki′ (enzyme–substrate–inhibitor dissociation constant), were calculated through nonlinear regression from the substrate velocity curves. Linear regression was used for the calculation of Lineweaver–Burk plots. […]

Data set [9] is described as follows: Aqueous solubility determination. In kind it is physicochemical. As to conditions: ultrapure distilled water containing 5% DMSO, 37 °C. The protocol:
Briefly, 200 μl of the aqueous solution of compound 33 at the concentration of 50 μM was analyzed for the UV/vis absorption spectrum using a multimode microplate reader (TECAN Spark®, Tecan Group Ltd., Switzerland) and the wavelength of maximum absorbance was used for further testing of the corresponding compound. Subsequently, six consecutive concentrations were prepared for the compound by serial dilution of 50 μM standard solution and the absorbance of these solutions (200 μl) was measured by a microplate reader. The data were used to calculate the calibration curve by the linear regression method. Finally, the over-saturated solutions of the tested compound were prepared and incubated in an ultrasound water bath at 37 °C for 10 min. Then the solutions were centrifuged at 8000 RPM for 10 min and the UV/vis absorption of the supernatant was measured by a microplate reader. The obtained absorption value was used to calculate the maximum water solubility of the tested compound. In case the absorption value of the supernatant was higher than the calibration curve range, the supernatant was diluted with a 5% DMSO/water solution to match the calibration curve.

The subject of data set [10] is recombinant AChE (hAChE, E.C. 3.1.1.7). On the set-up: method as in PMID 32455879, PMID 36152726. As to conditions: template alkaloid, Fig. 1; cited from earlier work.

Sequence of hBChE (P06276 29-602): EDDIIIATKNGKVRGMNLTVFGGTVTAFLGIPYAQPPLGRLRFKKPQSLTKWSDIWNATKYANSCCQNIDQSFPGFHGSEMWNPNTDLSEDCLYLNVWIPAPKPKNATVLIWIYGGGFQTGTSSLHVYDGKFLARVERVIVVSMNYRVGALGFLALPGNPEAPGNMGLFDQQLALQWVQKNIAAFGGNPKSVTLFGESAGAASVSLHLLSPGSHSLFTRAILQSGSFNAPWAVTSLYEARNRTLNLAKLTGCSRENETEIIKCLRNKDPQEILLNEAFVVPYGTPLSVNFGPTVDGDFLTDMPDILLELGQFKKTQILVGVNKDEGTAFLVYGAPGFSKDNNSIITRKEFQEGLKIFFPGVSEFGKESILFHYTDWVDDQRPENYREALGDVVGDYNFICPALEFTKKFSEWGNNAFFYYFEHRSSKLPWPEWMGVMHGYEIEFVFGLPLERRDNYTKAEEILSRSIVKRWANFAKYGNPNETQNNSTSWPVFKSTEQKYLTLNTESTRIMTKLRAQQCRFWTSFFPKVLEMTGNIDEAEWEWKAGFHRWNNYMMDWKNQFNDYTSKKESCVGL
T1 sequence (P06276 29-602): as above

On to `C=CCOc1ccc(CCN(CC=C)Cc2ccc(OC)c(OCc3ccccc3)c2)cc1` [Compound 1, reference compound], for which the IC50 at 24 h in [1] is > 125 µM.

With `Oc1ccc(CCNCc2cccc(OCc3ccccc3)c2)cc1` [Compound 4, 4-[2-({[3-(Benzyloxy)phenyl]methyl}amino)ethyl]phenol], in [2], the IC50 at 24 h is 60 ± 4 µM. Also, in data set [3], the “Pe ± SEM” value is listed as 14.0 ± 0.4 ×10^−6 cm s^−1 and the “BBB penetration estimation CNS (+/−)” value is on record as “CNS + (CNS (+) (high BBB permeation predicted): Pe (×10^−6 cm s^−1) > 4.0)”. In [1], this compound gave an IC50 at 24 h of 21 ± 2.4 µM. In addition, in data set [4], the IC50 is 0.193 ± 0.055 µM and the inhibition at 10 µM is 96 ± 0.8%. In [5], this compound came in with a Safety index of 310.

With `COc1ccccc1CCNCc1cccc(OCc2ccccc2)c1` [Compound 5, {[3-(Benzyloxy)phenyl]methyl}[2-(2-methoxyphenyl)ethyl]amine], the IC50 at 24 h in data set [2] stood at 52 ± 10 µM. Also, in data set [3], the “Pe ± SEM” value is on record as 6.2 ± 0.7 ×10^−6 cm s^−1 and the “BBB penetration estimation CNS (+/−)” value is “CNS + (CNS (+) (high BBB permeation predicted): Pe (×10^−6 cm s^−1) > 4.0)”. Further, inhibition in [1] was half-maximal at 16 ± 2.8 µM (IC50 at 24 h). In addition, in data set [4], the IC50 turned out to be 0.4 ± 0.1 µM and the inhibition at 10 µM stood at 94 ± 0.4%. Further, in [5], the Safety index stood at 130.

The compound `CC(CNCc1cccc(OCc2ccccc2)c1)c1ccccc1` (centres unmarked) [Compound 18, {[3-(Benzyloxy)phenyl]methyl}(2-phenylpropyl)amine] registered an IC50 at 24 h in data set [2] of 55 ± 6.9 µM. Further, in [3], the “Pe ± SEM” value is 8.1 ± 0.6 ×10^−6 cm s^−1 and the “BBB penetration estimation CNS (+/−)” value is on record as “CNS + (CNS (+) (high BBB permeation predicted): Pe (×10^−6 cm s^−1) > 4.0)”. Moreover, half-maximal inhibition in data set [1] (IC50 at 24 h) was put at 36 ± 1.4 µM. Moreover, in data set [4], the IC50 worked out at 0.188 ± 0.023 µM and the inhibition at 10 µM was found to be 96 ± 0.3%. Moreover, in data set [5], the Safety index was found to be 290.

With `Oc1ccc(CCNCc2ccc(OCc3ccccc3)cc2)cc1` [Compound 28, 4-[2-({[4-(Benzyloxy)phenyl]methyl}amino)ethyl]phenol], the IC50 at 24 h in data set [2] turned out to be 85 ± 12 µM. In data set [3], the “Pe ± SEM” value is 10.0 ± 0.5 ×10^−6 cm s^−1 and the “BBB penetration estimation CNS (+/−)” value is listed as “CNS + (CNS (+) (high BBB permeation predicted): Pe (×10^−6 cm s^−1) > 4.0)”. The compound further had an IC50 at 24 h in data set [1] of 13 ± 1.2 µM. Besides, in data set [4], the IC50 worked out at 0.171 ± 0.063 µM and the inhibition at 10 µM was found to be 97 ± 0.3%. In [5], the Safety index was 500.

On to `CCCN(CCc1ccc(O)cc1)Cc1ccc(OCc2ccccc2)cc1` [Compound 33, 4-[2-({[4-(Benzyloxy)phenyl]methyl}(propyl)amino)ethyl]phenol], for which the IC50 at 24 h in [2] was 93 ± 11 µM. For the same compound, in data set [3], the “Pe ± SEM” value was 11.0 ± 2.2 ×10^−6 cm s^−1 and the “BBB penetration estimation CNS (+/−)” value is recorded as “CNS + (CNS (+) (high BBB permeation predicted): Pe (×10^−6 cm s^−1) > 4.0)”. The compound also returned an IC50 at 24 h in data set [1] of 38 ± 3.5 µM. In [6] (pH 7.4), this compound showed an intrinsic metabolic clearance (microsomal CLint) at 0.75 h, 3 µM of 161 µL/min/mg. Also, the half-life at 0.75 h, 3 µM in data set [6] (pH 7.4, up to 45 min incubation, read-out: HLM T½) is 8.62 min. In data set [7], this compound had a Plasma stability of 94.5%. Moreover, in data set [4], the IC50 stood at 0.167 ± 0.018 µM and the inhibition at 10 µM is 95 ± 1.1%. For the same compound, the Ki in data set [8] (enzyme–inhibitor dissociation constant, nonlinear regression) worked out at 0.182 ± 0.028 µM. For the same compound, the “Ki′” value in [8] (enzyme–substrate–inhibitor dissociation constant, nonlinear regression) is 1.619 ± 0.315 µM. In data set [8] (sum-of-squares F-test, p < 0.0002, Lineweaver–Burk plot), the “type of enzyme inhibition” value was “mixed inhibition pattern”. The Safety index in [5] is on record as 560. The same compound returned a solubility at 10 min in data set [9] of 267 µM (≈ 100 µg/mL).

Regarding `CC(CCc1ccccc1)NCc1ccc(OCc2ccccc2)cc1` (centres unmarked) [Compound 42, {[4-(Benzyloxy)phenyl]methyl}(4-phenylbutan-2-yl)amine], in data set [3], the “Pe ± SEM” value is 22.0 ± 4.2 ×10^−6 cm s^−1 and the “BBB penetration estimation CNS (+/−)” value was “CNS + (CNS (+) (high BBB permeation predicted): Pe (×10^−6 cm s^−1) > 4.0)”. Also, in data set [4], the IC50 worked out at 0.5 ± 0.1 µM and the inhibition at 10 µM amounted to 92 ± 0.5%.

In the case of `CCCN(CCCc1ccccc1)Cc1ccc(OCc2ccccc2)cc1` [Compound 45, {[4-(Benzyloxy)phenyl]methyl}(3-phenylpropyl)propylamine], in data set [3], the “Pe ± SEM” value is on record as 25.0 ± 2.9 ×10^−6 cm s^−1 and the “BBB penetration estimation CNS (+/−)” value is on record as “CNS + (CNS (+) (high BBB permeation predicted): Pe (×10^−6 cm s^−1) > 4.0)”. Also, in [4], the 50% inhibitory concentration (IC50) came out at 0.29 ± 0.04 µM and the inhibition at 10 µM came out at 93 ± 0.8%.

For `CCN(Cc1ccc(OCc2ccccc2)cc1)C(C)CCc1ccccc1` (centres unmarked) [Compound 46, {[4-(Benzyloxy)phenyl]methyl}(ethyl)(4-phenylbutan-2-yl)amine], in data set [3], the “Pe ± SEM” value is given as 36.0 ± 2.0 ×10^−6 cm s^−1 and the “BBB penetration estimation CNS (+/−)” value is “CNS + (CNS (+) (high BBB permeation predicted): Pe (×10^−6 cm s^−1) > 4.0)”. Besides, in data set [4], the IC50 came to 0.5 ± 0.3 µM and the inhibition at 10 µM came out at 87 ± 1.5%.

For `CN(CCc1ccc(O)cc1)Cc1cc2c(cc1-c1cccc3c1N(C)CC3)OCO2` [carltonine B], the IC50 in data set [10] was > 100 µM.

A word on the IC50: it is the midpoint of a concentration-inhibition curve. In general, inhibition refers to the drop in the measured response relative to a control, in per cent. The microsomal CLint is the rate of metabolic loss divided by the concentration. Usually Ki stands for the equilibrium dissociation constant of an inhibitor or competing ligand from its target. The solubility is how much of the substance goes into solution per volume. Low readings indicate little dissolved substance, high ones much dissolved substance.
